From patent US10100082B2, “Hexapeptide for neuroprotection against a β toxicity” (Council of Scientific and Industrial Research, priority 2016, dated 2018)
The star is where a group is joined. FITC = O=C1OC2(c3ccc(O)cc3Oc3cc(O)ccc32)c2ccc(NC(=S)*)cc21

Assays:
tubulin = tubulin mix with GTP, 30 min at 37° C., 561 nm channel
Method: Hexapeptide ‘NV’-Tubulin Interaction Study on Biotin Micropatterned Surface
Biotin micropatterned surfaces were prepared as previously described method. A flow chamber of around 5 μL was built from one biotin-patterned glass surface and one poly-L-lysine (PLL)-PEG passivated counter glass, separated by two strips of double sticky tape (Tesa). Flow chamber was equilibrated with BRB80 and incubated with β-casein for 10 min followed by washing with 20 μL BRB80 for complete removal of unbound β-casein. 100 nM neutravidin was flowed into the flow chamber and incubated for 10 min followed by removal of excess neutravidin with 20 μL BRB80. […] Then, the flow chamber was filled with 18.5 μM tubulin mix (80:20 unlabeled tubulin and Alexa568 tubulin) in BRB80 supplemented with 3 mM GTP, 10 mM MgCl2, and an oxygen scavenger system (50 mM glucose, 1 mg mL^−1 glucose oxidase, and 0.5 mg mL^−1 catalase) on an ice cold metal block and placed to the TIRF microscope at 37° C. Then flow chamber was imaged using an IX-81 total internal reflection fluorescence (TIRF) microscope (Olympus) with a 60×TIRFM objective (Olympus; Hamburg, Germany) and an Andor iXon3 897 Camera. Control experiment was performed, following previously described method without immobilizing ‘Bio-NV’ on biotin micropatterned surface.

[1] = tested on: neuronally differentiated PC12 cells; assay: Neuroprotection against anti-NGF toxicity (NGF deprivation), intact nuclear counting; type: cell-based, rat; conditions: higher concentrations of NV
Method: On the fifth day they were treated overnight with anti-NGF along with different doses of inhibitor NV (FIG. 4d). […] The cells were observed under the microscope on the day following treatment; survival was assessed by intact nuclear counting assay (FIG. 4d).
Rat pheochromocytoma cells (PC12) cells were cultured as described previously (ESI) in RPMI medium supplemented with 10% heat-inactivated horse serum (HS) and 5% heat-inactivated fetal bovine serum. Neuronal differentiation of these cells was induced by NGF (100 ng/mL) in medium containing 1% horse serum for 6 days before the treatment, as previously described.
The cell viability was checked by the intact nuclear counting method. This assay was performed as described previously. In brief, a detergent containing the buffer that dissolved only the plasma membrane was added to the cells, the nuclear membrane thus remained intact. The intact nuclei were then counted on a haemocytometer under a light microscope. The number of live cells was expressed as percentage of the total cell population.

tau = conditions: previous study; cited from earlier work
amyloid beta = conditions: previous study; cited from earlier work
polymerized microtubules = assay: FITC-NV binding with microtubule at tubulin polymerization; conditions: FITC-NV during polymerization of alexa-568 labeled tubulin with GTP
Method: Hexapeptide NV Binding with Microtubule at Tubulin Polymerization
Mixture 1: Alexa Fluor 568-labeled tubulin (0.5 μL, 15 mg mL^−1, 65% labelling ratio), Tubulin (2 μL, 20 mg mL^−1), FITC-NV (0.5 μL, 1 mM), GTP (0.2 μL, […]) and BRB80 (46.8 μL; 80 mM PIPES, 1 mM EGTA; 1 mM MgCl2, pH adjusted to 6.8 by using concentrated KOH solution) were mixed on ice. The mixture was incubated for 30 min on 37° C. water bath.
Mixture 2: Taxol (0.4 μL, 1 mM) and BRB80 (180 μL) were mixed.
Final Mixture: After 30 min incubation 50 μL warmed mixture 2 was added into mixture 1. Then this mixture was separated in a table top centrifuge (7 min, 12000 rpm, Eppendorf 5810R bench-top centrifuge, rotor type F-34-6-38). The coloured pellet was resuspended in warm mixture 2. 10 μL resuspended solution of microtubule was placed on glass cover slip and imaged under inverted fluorescence microscope (NIKON Ti-U) in 40× magnification using ANDOR iXON3 camera.

## Biotin-NAPVSIPQ-NH2 [Biotin-NV]
tubulin
  binding of tubulin to immobilized Biotin-NV on micropatterns: localized binding of tubulin

## H-NAVSIQ-NH2 [NV, NH2-NAVSIQ-NH2]
[1]
  toxicity to control cells: showed toxicity to control cells

## NH2-NAPVSIPQ-NH2 [NQ]
tau
  inhibition of tau hyper phosphorylation in vivo: inhibit tau hyper phosphorylation in vivo
Amyloid beta
  inhibition of amyloid beta fibrillation in vitro: inhibits amyloid beta fibrillation in vitro

## {FITC}-NAVSIQ-NH2 [FITC-NV]
Polymerized microtubules
  binding with polymerized microtubules: binds with polymerized microtubules
